This note sets out measurements from patent US4596805A, “Substituted dioxopyridopyrimidines” (Ortho Pharmaceutical Corporation, priority 1984, dated 1986).

Usually inhibition stands for the drop in the measured response relative to a control, in per cent.

Test [1] relates to spontaneously hypertensive rats. Description: Spontaneously Hypertensive Rat Test (Test 3). It counts as in vivo. To be noted: 100 mg/kg body weight, four male spontaneously hypertensive rats, indirect tail-cuff method. Here is the method:
Alternatively, one may evaluate the calcium antagonist activity of a test compound by measuring the displacement of nitrendipine to calcium channel antagonist receptors by the test compound according to the methods of Bolger, et al., Biochem. Biophys. Res. Comm., 104(4), 1604-1609 (1982) and Ehlert, et al., Life Sciences, 30, 2191-2202 (1982). In such a test, the amount of specifically-bound nitrendipine to rabbit heart is determined in the presence and absence of test compound. The percent nitrendipine displacement is directly related to the efficacy of the test compound as a calcium antagonist. This assay is described below as the "Nitrendipine Binding Assay". […] Circ. J., 270, 282 (1963). The general techniques for conducting such tests are disclosed in B. Vagnovsky "Automatic Blood-Pressure Measurements in Small Animals", American Laboratory, April, 1973, and "Techniques for the Measurement of Blood Pressure", Institute of Laboratory Animal Resouces NEWS, Vol. XIX (3), G 11-12, Spring, 1976. In this test a group of four male spontaneously hypertensive rats having systolic blood pressures greater than 150 mm Hg are used for each test compound. Systolic blood pressure is measured by the indirect method using a tail-cuff. The compounds are administered at a dose of 100 mg/kg body weight, and the average of the peak decrease in blood pressure is calculated for the four rats. Test results for exemplary compounds of Formula I are provided in Table I below, in which the Rabbit Potassium Depolarized Blood Vessel Test is called "Test 2", the Nitrendipine Binding Assay is called "Test 1" and the Spontaneously Hypertensive Rat test is called "Test 3".

In test [2] the target is calcium channel antagonist receptors (rabbit heart) (Oryctolagus cuniculus, UniProt P15381). Description: Nitrendipine Binding Assay (Test 1). More on the design: species or system rabbit (female New Zealand white). Particulars: 3H-nitrendipine (0.05-0.50 nM), rabbit heart membrane, 90 min at 4° C., pH 7.4; read-out: Test 1 (IC50): concentration required to achieve 50% displacement of specifically-bound nitrendipine.

Test [3] concerns vascular smooth muscle tissue from the rabbit aorta. Description: Rabbit Potassium Depolarized Blood Vessel Test (Test 2). The class given is cell-based. Particulars: Oryctolagus cuniculus, 10 min; test compound 10^-6 M, 10 minute exposure, 30 mM potassium chloride, rabbit aorta strips, 37° C.; read-out: Test 2 (% Inhibition) of potassium-induced contraction. The source says:
This tissue can be made to contract when exposed to a depolarizing solution containing an elevated potassium ion concentration and normal amounts of calcium ions. A test compound added to the solution produces a dose-dependent relaxation of the contracted rabbit aortic tissue which gives an indication of calcium antagonist activity of the test compound. This test is described below as the "Rabbit Potassium Depolarized Blood Vessel Test".
In the Rabbit Potassium Depolarized Blood Vessel Test, rabbits are killed by cervical dislocation, and the thoracic aorta is removed. Helical strips, approximately 30-40 mm in length, are cut from the aorta and are suspended in tissue baths of oxygenated Krebs bicarbonate buffer at 37° C. under a resting tension of 4 g. After an equilibration period of approximately 1-2 hours, the strips are challenged with a 30 mM potassium chloride solution and the peak contraction is measured. Following measurement of the peak contraction, the strips are washed and re-equilibrated for an hour in oxygenated Krebs bicarbonate buffer. After the re-equilibration of the aorta strips, the test compound was added to the bath at a concentration of 10-^6 M and the strips were allowed to stand for 10 minutes. After the 10 minute exposure to the test compound, the tissue strips were rechallenged with 30 mM potassium chloride solution and the maximum contraction was measured. The specificity of any inhibition of contraction is determined by addition of 10 mM phenylephrine.
The percent inhibition of contraction is calculated from the formula: […]
where CT is the peak contraction in the presence of the test compound and Cc is the peak contraction without test compound.
Test results for exemplary compounds of Formula I are provided in Table I below, in which the Rabbit Potassium Depolarized Blood Vessel Test is called "Test 2", the Nitrendipine Binding Assay is called "Test 1" and the Spontaneously Hypertensive Rat test is called "Test 3".

Sequence of calcium channel antagonist receptors (rabbit heart) (P15381 whole entry, other chains not shown): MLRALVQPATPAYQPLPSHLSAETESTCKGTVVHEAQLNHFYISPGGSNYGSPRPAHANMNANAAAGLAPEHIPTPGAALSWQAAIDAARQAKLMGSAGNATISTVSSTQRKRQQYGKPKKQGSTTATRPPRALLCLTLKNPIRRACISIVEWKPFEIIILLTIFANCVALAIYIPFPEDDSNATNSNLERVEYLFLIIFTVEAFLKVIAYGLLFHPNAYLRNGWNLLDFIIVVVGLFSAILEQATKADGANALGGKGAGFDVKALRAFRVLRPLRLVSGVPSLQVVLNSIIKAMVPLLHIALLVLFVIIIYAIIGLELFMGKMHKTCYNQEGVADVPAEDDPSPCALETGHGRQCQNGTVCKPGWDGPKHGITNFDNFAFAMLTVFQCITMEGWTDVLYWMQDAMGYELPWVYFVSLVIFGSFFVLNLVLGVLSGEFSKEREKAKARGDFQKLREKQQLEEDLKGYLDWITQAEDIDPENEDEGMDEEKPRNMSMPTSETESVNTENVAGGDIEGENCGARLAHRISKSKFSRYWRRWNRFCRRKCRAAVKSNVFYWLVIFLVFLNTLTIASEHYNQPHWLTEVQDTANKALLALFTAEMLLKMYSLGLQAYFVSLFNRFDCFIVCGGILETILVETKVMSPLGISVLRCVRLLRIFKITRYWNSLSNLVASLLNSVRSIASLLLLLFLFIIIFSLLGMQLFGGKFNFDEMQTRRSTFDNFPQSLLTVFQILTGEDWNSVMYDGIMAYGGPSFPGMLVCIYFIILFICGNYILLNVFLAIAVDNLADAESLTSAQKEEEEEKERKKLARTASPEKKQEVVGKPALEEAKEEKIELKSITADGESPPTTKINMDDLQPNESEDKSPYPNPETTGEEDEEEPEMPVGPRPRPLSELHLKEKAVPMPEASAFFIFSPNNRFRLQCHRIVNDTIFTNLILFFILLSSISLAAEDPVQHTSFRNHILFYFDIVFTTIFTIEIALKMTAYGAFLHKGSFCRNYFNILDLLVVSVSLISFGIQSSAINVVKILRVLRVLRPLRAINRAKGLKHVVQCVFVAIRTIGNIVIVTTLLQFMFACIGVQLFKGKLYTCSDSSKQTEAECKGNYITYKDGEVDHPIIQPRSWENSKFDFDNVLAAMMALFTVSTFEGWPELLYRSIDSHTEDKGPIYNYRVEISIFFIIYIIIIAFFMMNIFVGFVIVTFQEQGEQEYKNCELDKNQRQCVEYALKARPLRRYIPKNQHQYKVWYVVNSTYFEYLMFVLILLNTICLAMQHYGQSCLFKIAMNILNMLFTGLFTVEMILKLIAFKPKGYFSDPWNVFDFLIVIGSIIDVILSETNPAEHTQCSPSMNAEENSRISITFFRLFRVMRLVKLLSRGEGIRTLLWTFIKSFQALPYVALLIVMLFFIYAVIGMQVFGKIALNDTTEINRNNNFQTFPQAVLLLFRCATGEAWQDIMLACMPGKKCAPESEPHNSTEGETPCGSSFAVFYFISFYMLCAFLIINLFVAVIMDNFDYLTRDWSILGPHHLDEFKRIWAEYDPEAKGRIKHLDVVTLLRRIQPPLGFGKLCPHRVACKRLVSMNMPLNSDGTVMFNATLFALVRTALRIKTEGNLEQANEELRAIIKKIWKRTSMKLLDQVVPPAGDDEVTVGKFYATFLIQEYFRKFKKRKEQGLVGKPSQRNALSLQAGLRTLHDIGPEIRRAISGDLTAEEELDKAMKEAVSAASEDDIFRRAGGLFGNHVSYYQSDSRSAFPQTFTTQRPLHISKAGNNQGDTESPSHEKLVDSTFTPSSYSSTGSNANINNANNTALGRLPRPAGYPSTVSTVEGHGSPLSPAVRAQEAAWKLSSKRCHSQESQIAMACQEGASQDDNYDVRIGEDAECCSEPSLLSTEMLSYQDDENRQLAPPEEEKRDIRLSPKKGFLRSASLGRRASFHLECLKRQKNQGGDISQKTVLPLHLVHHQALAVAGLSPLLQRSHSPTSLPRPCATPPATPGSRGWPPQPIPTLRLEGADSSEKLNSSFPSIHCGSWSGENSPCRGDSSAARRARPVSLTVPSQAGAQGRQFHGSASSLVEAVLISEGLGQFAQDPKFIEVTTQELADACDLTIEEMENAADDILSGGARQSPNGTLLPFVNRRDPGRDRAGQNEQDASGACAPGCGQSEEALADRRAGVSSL
Sequence of calcium channel antagonist receptors (rabbit heart) (P13806 27-960 partner limits assumed, other chains not shown): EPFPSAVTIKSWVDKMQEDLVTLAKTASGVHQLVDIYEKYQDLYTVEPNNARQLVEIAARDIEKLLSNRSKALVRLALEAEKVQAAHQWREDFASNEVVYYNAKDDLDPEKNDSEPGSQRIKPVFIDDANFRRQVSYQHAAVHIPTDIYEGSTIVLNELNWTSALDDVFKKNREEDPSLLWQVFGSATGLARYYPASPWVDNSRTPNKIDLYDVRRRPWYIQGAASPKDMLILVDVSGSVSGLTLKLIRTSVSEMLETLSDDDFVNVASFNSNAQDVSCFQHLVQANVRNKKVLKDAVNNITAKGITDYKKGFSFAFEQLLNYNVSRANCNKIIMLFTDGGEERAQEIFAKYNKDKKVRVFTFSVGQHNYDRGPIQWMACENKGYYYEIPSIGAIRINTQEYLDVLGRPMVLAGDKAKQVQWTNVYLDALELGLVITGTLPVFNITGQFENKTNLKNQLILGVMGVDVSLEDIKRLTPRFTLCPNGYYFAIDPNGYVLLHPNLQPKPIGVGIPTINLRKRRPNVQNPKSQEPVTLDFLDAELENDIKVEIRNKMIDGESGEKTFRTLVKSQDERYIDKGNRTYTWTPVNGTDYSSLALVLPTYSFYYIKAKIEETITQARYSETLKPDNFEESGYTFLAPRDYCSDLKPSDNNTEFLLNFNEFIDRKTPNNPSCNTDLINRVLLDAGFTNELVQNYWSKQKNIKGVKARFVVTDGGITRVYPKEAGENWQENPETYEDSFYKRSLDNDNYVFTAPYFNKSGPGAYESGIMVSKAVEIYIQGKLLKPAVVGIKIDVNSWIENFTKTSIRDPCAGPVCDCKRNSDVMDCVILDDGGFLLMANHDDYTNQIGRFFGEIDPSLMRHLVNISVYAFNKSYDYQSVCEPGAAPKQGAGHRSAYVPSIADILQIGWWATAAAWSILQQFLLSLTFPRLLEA
Sequence of calcium channel antagonist receptors (rabbit heart) (P13806 961-1106 partner limits assumed, other chains not shown): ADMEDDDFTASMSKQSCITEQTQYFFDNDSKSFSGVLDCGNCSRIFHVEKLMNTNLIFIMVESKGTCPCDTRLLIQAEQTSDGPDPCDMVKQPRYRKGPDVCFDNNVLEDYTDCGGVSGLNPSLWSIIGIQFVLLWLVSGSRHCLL

Consider `CC1=C(C(=O)OCCN(C)Cc2ccccc2)C(c2ccccc2Cl)c2c(n(C)c(=O)n(C)c2=O)N1` (stereo not drawn) [XIV], for which, in test [1], the “Test 3 (mmHg, 100 mpk): average of the peak decrease in systolic blood pressure” value is -40 mmHg. In test [2], the IC50 came out at 1000 nM. In addition, in test [3], the inhibition at 1 µM worked out at 50%.

Turning to `CC1=C(C(=O)OCCN(C)Cc2ccccc2)C(C2CCCCC2)c2c(n(C)c(=O)n(C)c2=O)N1` (stereo not drawn) [XVII], in test [1], the “Test 3 (mmHg, 100 mpk): average of the peak decrease in systolic blood pressure” value was -30 mmHg. In addition, in test [2], the IC50 was found to be 2000 nM. For the same compound, the inhibition at 1 µM in test [3] was 18%.

Take `CC1=C(C(=O)OCCN(C)Cc2ccccc2)C(c2cccc([N+](=O)[O-])c2)c2c(n(C)c(=O)n(C)c2=O)N1` (stereo not drawn) [IV]: in test [1], the “Test 3 (mmHg, 100 mpk): average of the peak decrease in systolic blood pressure” value is -28 mmHg. Moreover, the IC50 in test [2] was 230 nM. Further, the inhibition at 1 µM in test [3] was found to be 44%.

As to `COc1cccc(C2C(C(=O)OCCN(C)Cc3ccccc3)=C(C)Nc3c2c(=O)n(C)c(=O)n3C)c1` (stereo not drawn) [IX], the “Test 3 (mmHg, 100 mpk): average of the peak decrease in systolic blood pressure” value in test [1] is -57 mmHg. Further, the IC50 in test [2] amounted to 2800 nM. Also, the inhibition at 1 µM in test [3] amounted to 8%.

On to `CC1=C(C(=O)OCCN(C)Cc2ccccc2)C(c2cc(Cl)cc(Cl)c2)c2c(n(C)c(=O)n(C)c2=O)N1` (stereo not drawn) [XIX], for which the “Test 3 (mmHg, 100 mpk): average of the peak decrease in systolic blood pressure” value in test [1] is reported as -37 mmHg. In addition, in test [2], the IC50 came to 2300 nM. Also, in test [3], the inhibition at 1 µM was 28%.

As to `CC1=C(C(=O)OCCN(C)Cc2ccccc2)C(c2ccc(C(F)(F)F)cc2)c2c(n(C)c(=O)n(C)c2=O)N1` (stereo not drawn) [XXI], the “Test 3 (mmHg, 100 mpk): average of the peak decrease in systolic blood pressure” value in test [1] is given as -16 mmHg. In addition, in test [2], the IC50 was determined as 2300 nM. Besides, the inhibition at 1 µM in test [3] was determined as 6%.

Consider `CC1=C(C(=O)OCCN(C)Cc2ccccc2)C(c2cccc(C#N)c2)c2c(n(C)c(=O)n(C)c2=O)N1` (stereo not drawn) [V], for which the “Test 3 (mmHg, 100 mpk): average of the peak decrease in systolic blood pressure” value in test [1] is listed as -31 mmHg. Moreover, the IC50 in test [2] was determined as 650 nM. Moreover, in test [3], the inhibition at 1 µM worked out at 26%.

`CC1=C(C(=O)OCCN(C)Cc2ccccc2)C(c2ccccc2[N+](=O)[O-])c2c(n(C)c(=O)n(C)c2=O)N1` (stereo not drawn) [XII]: in test [1], the “Test 3 (mmHg, 100 mpk): average of the peak decrease in systolic blood pressure” value is reported as -16 mmHg. Besides, in test [2], the IC50 is 2500 nM. For the same compound, the inhibition at 1 µM in test [3] was 27%.

Regarding `CC1=C(C(=O)OCCN(C)Cc2ccccc2)C(c2cccc(C(F)(F)F)c2)c2c(n(C)c(=O)n(C)c2=O)N1` (stereo not drawn) [XVIII], the “Test 3 (mmHg, 100 mpk): average of the peak decrease in systolic blood pressure” value in test [1] is listed as -37 mmHg. The IC50 in test [2] came to 3400 nM. For the same compound, in test [3], the inhibition at 1 µM amounted to 33%.

As for `CC1=C(C(=O)OCCN(C)Cc2ccccc2)C(c2cccc(F)c2)c2c(n(C)c(=O)n(C)c2=O)N1` (stereo not drawn) [VIII], the “Test 3 (mmHg, 100 mpk): average of the peak decrease in systolic blood pressure” value in test [1] was -47 mmHg. Moreover, in test [2], the IC50 worked out at 500 nM. The inhibition at 1 µM in test [3] came out at 48%.

Regarding `CC1=C(C(=O)OCCN(C)Cc2ccccc2)C(c2cccc(Cl)c2)c2c(n(C)c(=O)n(C)c2=O)N1` (stereo not drawn) [VI, 2-(N-benzyl-N-methylaminoethyl) 5-(3-chlorophenyl)-5,8-dihydro-1,3,7-trimethyl-2,4-dioxopyrido[2,3-d]pyrimidine-6-carboxylate], the “Test 3 (mmHg, 100 mpk): average of the peak decrease in systolic blood pressure” value in test [1] was -50 mmHg. Moreover, the IC50 in test [2] was 100 nM. Further, in test [3], the inhibition at 1 µM was 52%.

With `COC(=O)C1=C(C)Nc2c(c(=O)n(C)c(=O)n2C)C1c1cccc([N+](=O)[O-])c1` (stereo not drawn) [Example I, Methyl 5,8-Dihydro-1,3,7-trimethyl-5-(3-nitrophenyl)-2,4-dioxopyrido[2,3-d]pyrimidine-6-carboxylate], the “Test 3 (mmHg, 100 mpk): average of the peak decrease in systolic blood pressure” value in test [1] is given as -11 mmHg. The IC50 in test [2] turned out to be 300 nM. Further, the inhibition at 1 µM in test [3] worked out at 54%.

Turning to `CC1=C(C(=O)OCCBr)C(c2cccc(Cl)c2)c2c(n(C)c(=O)n(C)c2=O)N1` (stereo not drawn) [XXIII], the “Test 3 (mmHg, 100 mpk): average of the peak decrease in systolic blood pressure” value in test [1] is -16 mmHg. In addition, in test [2], the IC50 is 78 nM. Moreover, the inhibition at 1 µM in test [3] was determined as 54%.
